In patent publication US5030760A, “Tetrahydrophthalimides, and their production and use” (Sumitomo Chemical Company, Ltd., priority 1981, dated 1991):

How the values were obtained:
wild oat = experiment: Test Example 1, foliar treatment, herbicidal activity; format: in vivo, Avena fatua; details: 3 weeks; further: ranges in brackets are in %
Summary of the method: (§1)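 Crops and weeds sown in upland soil, greenhouse-grown 2 weeks, then sprayed on foliage with compound as emulsifiable concentrate in water plus spreading agent at 5 liters per are. Scored 3 weeks later from aerial fresh weight as percent of untreated plants, converted to a rating scale.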

large crabgrass = experiment: Test Example 5, spraying over the top, herbicidal activity; format: in vivo, Digitaria sanguinalis; details: sprayed over the top, 20 days; further: ranges in brackets are in %
Experimental: (§2) The application of the tetrahydrophthalimides (I) as herbicides will be illustratively shown in the following Examples wherein the phytotoxicity to cultivated plants and the herbicidal activity on weeds were evaluated as follows: the aerial parts of the test plants were cut off and weighed (fresh weight); the percentage of the fresh weight of the treated plant to that of the untreated plant was calculated with the latter fresh weight taken as 100; and the crop damage and the herbicidal activity were evaluated by the standard given in the table below. The rating values of phytotoxicity, 0 and 1, and those of herbicidal effect, 5 and 4, are generally regarded as satisfactory to protect cultivated plants and control weeds, respectively. The rating values in the paddy field test alone were calculated from the dry weight of the test plants.
(§3) Plastic trays (35 cm×25 cm×15 cm) were filled with upland field soil, and the seeds of tall morningglory, velvetleaf, jimsonweed, sicklepod, hemp sesbania, prickly side, Johnsongrass, green foxtail and large crabgrass and the seeds of soybean were sown therein. A designed amount of the test compound formulated into a wettable powder according to Preparation Example 1 and dispersed in water was sprayed over the top by means of a small hand sprayer at a spray volume of 5 liters per are. After the spraying, the test plants were grown in greenhouse for 20 days, and phytotoxicity and herbicidal activity were examined.

wild mustard = experiment: Test Example 1, foliar treatment, herbicidal activity; format: in vivo, Brassica kaber; details: 3 weeks
Summary of the method: as §1

barnyardgrass [1] = experiment: Test Example 6, paddy pot perfusion, herbicidal activity; format: in vivo, Echinochloa crus-galli; details: 3 weeks, dry weight; further: ranges in brackets are in %
Experimental: as §2
(§4) Wagner's pots (1/5000 are) were filled with paddy field soil containing the seeds of broad-leaved weeds (e.g. monochoria, false pimpernel, toothcup) and the seeds of barnyardgrass and hardstem bulrush, and water was poured therein until the depth of water became 4 cm. Rice seedlings of the 3.5-leaf stage and the tubers of arrowhead were transplanted therein and grown for 2 days in a greenhouse. A designed amount of the test compound formulated in an emulsifiable concentrate according to Preparation Example 2 was applied to the pots by perfusion. Thereafter, the test plants were grown for an additional 3 weeks in the greenhouse, and herbicidal activity and phytotoxicity were examined. In this treatment, the emulsifiable concentrate was dispersed in water for application at a perfusion volume of 10 liters per are.

green foxtail [2] = experiment: Test Example 5, spraying over the top, herbicidal activity; format: in vivo, Setaria viridis; details: sprayed over the top, 20 days; further: ranges in brackets are in %
Experimental: as §2, §3

hemp sesbania = experiment: as above; format: in vivo, Sesbania exaltator; details: sprayed over the top, 20 days; further: ranges in brackets are in %
Experimental: as §2, §3

arrowhead = experiment: Test Example 6, paddy pot perfusion, herbicidal activity; format: in vivo, Sagittaria pygmaea; details: 3 weeks, dry weight; further: ranges in brackets are in %
Experimental: as §2, §4

soybean [3] = experiment: Test Example 4, pre-emergence treatment, phytotoxicity to soybean; format: in vivo; details: 20 days; further: ranges in brackets are in %
Experimental: as §2
(§5) Plastic beakers (diameter, 10 cm; height, 10 cm) were filled with upland field soil, and the seeds of corn, cotton and soybean and the seeds of morningglory, velvetleaf, Johnsongrass and green foxtail were separately sown in the beakers. A designed amount of the test compound was sprayed over the top by means of a small hand sprayer. After the spraying, the test plants were grown for 20 days in the greenhouse, and herbicidal activity and phytotoxicity were examined. In this pre-emergence treatment, the test compounds were formulated into an emulsifiable concentrate according to Preparation Example 2 and applied at a spray volume of 5 liters per are by dispersing it in water with the addition of a spreading agent.

cotton = experiment: Test Example 4, pre-emergence treatment, phytotoxicity to cotton; format: in vivo; details: 20 days; further: ranges in brackets are in %
Experimental: as §2, §5

Johnsongrass [4] = experiment: Test Example 4, pre-emergence treatment, herbicidal activity; format: in vivo, Sorghum halepense; details: 20 days; further: ranges in brackets are in %
Experimental: as §2, §5

morningglory = experiment: as above; format: in vivo; details: 20 days
Experimental: as §2, §5

barnyardgrass [5] = experiment: Test Example 1, foliar treatment, herbicidal activity; format: in vivo, Echinochloa crus-galli; details: 3 weeks; further: ranges in brackets are in %
Summary of the method: as §1

Johnsongrass [6] = experiment: Test Example 5, spraying over the top, herbicidal activity; format: in vivo, Sorghum halepense; details: sprayed over the top, 20 days; further: ranges in brackets are in %
Experimental: as §2, §3

soybean [7] = experiment: Test Example 5, spraying over the top, phytotoxicity to soybean; format: in vivo; details: sprayed over the top, 20 days; further: ranges in brackets are in %
Experimental: as §2, §3

velvetleaf [8] = experiment: Test Example 1, foliar treatment, herbicidal activity; format: in vivo, Abutilon theophrasti; details: 3 weeks; further: ranges in brackets are in %
Summary of the method: as §1

sicklepod = experiment: Test Example 5, spraying over the top, herbicidal activity; format: in vivo, Cassia obtusifolia; details: sprayed over the top, 20 days; further: ranges in brackets are in %
Experimental: as §2, §3

prickly sida = experiment: as above; format: in vivo, Sida spinosa; details: sprayed over the top, 20 days; further: ranges in brackets are in %
Experimental: as §2, §3

jimsonweed = experiment: as above; format: in vivo, Datura stramonium; details: sprayed over the top, 20 days; further: ranges in brackets are in %
Experimental: as §2, §3

corn [9] = experiment: Test Example 1, foliar treatment, phytotoxicity to corn; format: in vivo; details: 3 weeks; further: ranges in brackets are in %
Summary of the method: as §1

velvetleaf [10] = experiment: Test Example 4, pre-emergence treatment, herbicidal activity; format: in vivo, Abutilon theophrasti; details: 20 days; further: ranges in brackets are in %
Experimental: as §2, §5

broad-leaved weed = experiment: Test Example 6, paddy pot perfusion, herbicidal activity; format: in vivo, monochoria, false pimpernel, toothcup; details: 3 weeks, dry weight; further: ranges in brackets are in %
Experimental: as §2, §4

tall morningglory = experiment: Test Example 5, spraying over the top, herbicidal activity; format: in vivo, Ipomoea purpurea; details: sprayed over the top, 20 days; further: ranges in brackets are in %
Experimental: as §2, §3

green foxtail [11] = experiment: Test Example 4, pre-emergence treatment, herbicidal activity; format: in vivo, Setaria viridis; details: 20 days; further: ranges in brackets are in %
Experimental: as §2, §5

velvetleaf [12] = experiment: Test Example 5, spraying over the top, herbicidal activity; format: in vivo, Abutilon theophrasti; details: sprayed over the top, 20 days; further: ranges in brackets are in %
Experimental: as §2, §3

hardstem bulrush = experiment: Test Example 6, paddy pot perfusion, herbicidal activity; format: in vivo, Scirpus juncoides; details: 2.5 g/are, 3 weeks, dry weight; further: ranges in brackets are in %
Experimental: as §2, §4

rice plant = experiment: Test Example 6, paddy pot perfusion, phytotoxicity to rice plant; format: in vivo; details: 3 weeks, dry weight; further: ranges in brackets are in %
Experimental: as §2, §4

corn [13] = experiment: Test Example 4, pre-emergence treatment, phytotoxicity to corn; format: in vivo; details: 20 days; further: ranges in brackets are in %
Experimental: as §2, §5
Wherever Herbicidal activity, Morningglory is given: ranges in brackets are in %.

COc1cc(N2C(=O)C3=C(CCCC3)C2=O)c(F)cc1Cl [Compound No. 1]
1 (90-99): Phytotoxicity, Corn (corn [9]; 5 g/are) | Phytotoxicity, Rice plant (rice plant; 1.25 g/are) | Phytotoxicity, Rice plant (rice plant; 2.5 g/are) | Phytotoxicity, Corn (corn [13]; 2.5 g/are)
4 (1-10): Herbicidal activity, Barnyardgrass (barnyardgrass [1]; 1.25 g/are) | Herbicidal activity, Arrowhead (arrowhead; 1.25 g/are) | Herbicidal activity, Morningglory (morningglory; 2.5 g/are) | Herbicidal activity, Sicklepod (sicklepod; 3 g/are) | Herbicidal activity, Tall morningglory (tall morningglory; 3 g/are) | Herbicidal activity, Green foxtail (green foxtail [11]; 2.5 g/are) | Herbicidal activity, Hardstem bulrush (hardstem bulrush)
0 (100): Phytotoxicity, Soybean (soybean [3]; 2.5 g/are) | Phytotoxicity, Soybean (soybean [3]; 10 g/are) | Phytotoxicity, Cotton (cotton; 2.5 g/are) | Phytotoxicity, Soybean (soybean [7]; 3 g/are) | Phytotoxicity, Soybean (soybean [7]; 9 g/are) | Phytotoxicity, Corn (corn [9]; 1.25 g/are)
1 (41-60): Herbicidal activity, Wild cat (wild oat; 1.25 g/are) | Herbicidal activity, Barnyardgrass (barnyardgrass [5]; 1.25 g/are)
5 (0): Herbicidal activity, Wild cat (wild oat; 5 g/are) | Herbicidal activity, Large crabgrass (large crabgrass; 3 g/are) | Herbicidal activity, Large crabgrass (large crabgrass; 9 g/are) | Herbicidal activity, Wild mustard (wild mustard; 1.25 g/are) | Herbicidal activity, Wild mustard (wild mustard; 5 g/are) | Herbicidal activity, Barnyardgrass (barnyardgrass [1]; 2.5 g/are) | Herbicidal activity, Green foxtail (green foxtail [2]; 3 g/are) | Herbicidal activity, Green foxtail (green foxtail [2]; 9 g/are) | Herbicidal activity, Hemp sesbania (hemp sesbania; 3 g/are) | Herbicidal activity, Hemp sesbania (hemp sesbania; 9 g/are) | Herbicidal activity, Arrowhead (arrowhead; 2.5 g/are) | Herbicidal activity, Johnsongrass (Johnsongrass [4]; 2.5 g/are) | Herbicidal activity, Johnsongrass (Johnsongrass [4]; 10 g/are) | Herbicidal activity, Morningglory (morningglory; 10 g/are) | Herbicidal activity, Barnyardgrass (barnyardgrass [5]; 5 g/are) | Herbicidal activity, Johnsongrass (Johnsongrass [6]; 3 g/are) | Herbicidal activity, Johnsongrass (Johnsongrass [6]; 9 g/are) | Herbicidal activity, Velvetleaf (velvetleaf [8]; 1.25 g/are) | Herbicidal activity, Velvetleaf (velvetleaf [8]; 5 g/are) | Herbicidal activity, Sicklepod (sicklepod; 9 g/are) | Herbicidal activity, Prickly sida (prickly sida; 3 g/are) | Herbicidal activity, Prickly sida (prickly sida; 9 g/are) | Herbicidal activity, Jimsonweed (jimsonweed; 3 g/are) | Herbicidal activity, Jimsonweed (jimsonweed; 9 g/are) | Herbicidal activity, Velvetleaf (velvetleaf [10]; 2.5 g/are) | Herbicidal activity, Velvetleaf (velvetleaf [10]; 10 g/are) | Herbicidal activity, Broad-leaved weed (broad-leaved weed; 1.25 g/are) | Herbicidal activity, Broad-leaved weed (broad-leaved weed; 2.5 g/are) | Herbicidal activity, Tall morningglory (tall morningglory; 9 g/are) | Herbicidal activity, Green foxtail (green foxtail [11]; 10 g/are) | Herbicidal activity, Velvetleaf (velvetleaf [12]; 3 g/are) | Herbicidal activity, Velvetleaf (velvetleaf [12]; 9 g/are)
2 (80-89): Phytotoxicity, Cotton (cotton; 10 g/are) | Phytotoxicity, Corn (corn [13]; 10 g/are)
